Results reported in ChEMBL document CHEMBL1201862, “PubChem BioAssay data set” (2004).
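48-hour exposure; five concentrations; linearly interpolated endpoints. GI50 marks 50% less growth.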 Active and inactive are the calls of the source. No stated cut-off is given here; in the data, active = GI50 up to about 1.1 µM and inactive = higher.

What was measured:
Test in all cases: NCI tumour cell line growth inhibition, 48 h
SNB-19 = system: SNB-19
COLO 205 = system: COLO 205
SN12C = system: SN12C
UACC-257 = system: UACC-257
NCI-H522 = system: NCI-H522
Hs-578T = system: Hs-578T
SR = system: SR
RXF 393 = system: RXF 393
CCRF-CEM = system: CCRF-CEM
SF-295 = system: SF-295
RPMI-8226 = system: RPMI-8226
SF-268 = system: SF-268
SK-MEL-5 = system: SK-MEL-5
OVCAR-4 = system: OVCAR-4
HCT-116 = system: HCT-116
HL-60 = system: HL-60
SF-539 = system: SF-539
NCI-H226 = system: NCI-H226
KM12 = system: KM12
MDA-MB-435 = system: MDA-MB-435
SK-MEL-28 = system: SK-MEL-28
UO-31 = system: UO-31
SNB-75 = system: SNB-75
K562 = system: K562
EKVX = system: EKVX
NCI/ADR-RES = system: NCI/ADR-RES
OVCAR-3 = system: OVCAR-3
786-0 = system: 786-0
TK-10 = system: TK-10
HT-29 = system: HT-29
OVCAR-5 = system: OVCAR-5
Malme-3M = system: Malme-3M
MCF7 = system: MCF7
HOP-62 = system: HOP-62
LOX IMVI = system: LOX IMVI
HCT-15 = system: HCT-15
SK-OV-3 = system: SK-OV-3
SK-MEL-2 = system: SK-MEL-2
CAKI-1 = system: CAKI-1
SW-620 = system: SW-620
PC-3 = system: PC-3
IGROV-1 = system: IGROV-1
U-251 = system: U-251
T47D = system: T47D
DU-145 = system: DU-145
MDA-MB-231 = system: MDA-MB-231
UACC-62 = system: UACC-62
NCI-H23 = system: NCI-H23
NCI-H460 = system: NCI-H460
MOLT-4 = system: MOLT-4
OVCAR-8 = system: OVCAR-8
M14 = system: M14
ACHN = system: ACHN
A549 = system: A549

Structure (SMILES): C/C(=C\COP(=O)(O)OP(=O)(O)O)CCCOCc1ccccc1
- GI50 (SNB-19): > 100 µM (inactive)
- GI50 (COLO 205): > 100 µM (inactive)
- GI50 (SN12C): > 100 µM (inactive)
- GI50 (UACC-257): 38.4 µM (inactive)
- GI50 (NCI-H522): > 100 µM (inactive)
- GI50 (Hs-578T): > 100 µM (inactive)
- GI50 (SR): > 100 µM (inactive)
- GI50 (RXF 393): > 100 µM (inactive)
- GI50 (CCRF-CEM): < 0.01 µM (active)
- GI50 (SF-295): > 100 µM (inactive)
- GI50 (RPMI-8226): 0.207 µM (active)
- GI50 (SF-268): > 100 µM (inactive)
- GI50 (SK-MEL-5): 46.5 µM (inactive)
- GI50 (OVCAR-4): > 100 µM (inactive)
- GI50 (HCT-116): > 100 µM (inactive)
- GI50 (HL-60): 61.7 µM (inactive)
- GI50 (SF-539): > 100 µM (inactive)
- GI50 (NCI-H226): > 100 µM (inactive)
- GI50 (KM12): > 100 µM (inactive)
- GI50 (MDA-MB-435): > 100 µM (inactive)
- GI50 (SK-MEL-28): > 100 µM (inactive)
- GI50 (UO-31): > 100 µM (inactive)
- GI50 (SNB-75): > 100 µM (inactive)
- GI50 (K562): > 100 µM (inactive)
- GI50 (EKVX): > 100 µM (inactive)
- GI50 (NCI/ADR-RES): > 100 µM (inactive)
- GI50 (OVCAR-3): > 100 µM (inactive)
- GI50 (786-0): > 100 µM (inactive)
- GI50 (TK-10): > 100 µM (inactive)
- GI50 (HT-29): > 100 µM (inactive)
- GI50 (OVCAR-5): > 100 µM (inactive)
- GI50 (Malme-3M): > 100 µM (inactive)
- GI50 (MCF7): > 100 µM (inactive)
- GI50 (HOP-62): > 100 µM (inactive)
- GI50 (LOX IMVI): > 100 µM (inactive)
- GI50 (HCT-15): > 100 µM
- GI50 (SK-OV-3): > 100 µM (inactive)
- GI50 (SK-MEL-2): > 100 µM (inactive)
- GI50 (CAKI-1): > 100 µM (inactive)
- GI50 (SW-620): > 100 µM (inactive)
- GI50 (PC-3): > 100 µM (inactive)
- GI50 (IGROV-1): > 100 µM (inactive)
- GI50 (U-251): > 100 µM (inactive)
- GI50 (T47D): > 100 µM (inactive)
- GI50 (DU-145): > 100 µM (inactive)
- GI50 (MDA-MB-231): > 100 µM (inactive)
- GI50 (UACC-62): > 100 µM (inactive)
- GI50 (NCI-H23): > 100 µM (inactive)
- GI50 (NCI-H460): > 100 µM (inactive)
- GI50 (MOLT-4): > 100 µM (inactive)
- GI50 (OVCAR-8): > 100 µM (inactive)
- GI50 (M14): > 100 µM (inactive)
- GI50 (ACHN): > 100 µM (inactive)
- GI50 (A549): > 100 µM (inactive)
